US12227515B2, “In-flow photooxygenation of aminothienopyridinones generates novel PTP4A3 phosphatase inhibitors” (University of Virginia Patent Foundation, priority 2018, dated 2025)

Assays:
[1] = biological target: recombinant human His6-tagged PTP4A2 (Homo sapiens (Human), UniProt Q12974); experiment: In vitro biochemical analysis of PTP4A inhibition, DiFMUP substrate; details: DiFMUP 12 μM, 25 minutes, 25° C.; mean ± S.E.M.
[2] = biological target: recombinant human His6-tagged PTP4A3 (Homo sapiens (Human), UniProt O75365); experiment: as above; details: for preference among the PTP4A family members: PTP4A3 versus PTP4A1 and PTP4A2, from IC50 values
recombinant human His6-tagged PTP4A3, sequence (O75365 whole entry): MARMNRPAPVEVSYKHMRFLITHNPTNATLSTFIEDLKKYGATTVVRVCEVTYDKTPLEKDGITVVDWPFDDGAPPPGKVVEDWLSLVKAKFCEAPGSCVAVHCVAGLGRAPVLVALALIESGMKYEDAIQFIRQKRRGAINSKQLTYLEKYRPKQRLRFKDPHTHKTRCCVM

recombinant human His6-tagged PTP4A2, sequence (Q12974 whole entry): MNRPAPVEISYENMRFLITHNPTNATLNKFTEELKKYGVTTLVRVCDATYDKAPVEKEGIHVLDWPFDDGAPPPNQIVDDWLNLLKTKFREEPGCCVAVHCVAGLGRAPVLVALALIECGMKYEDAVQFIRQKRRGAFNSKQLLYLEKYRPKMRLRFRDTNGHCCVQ

SMILES	IC50 [1]	preference among the PTP4A family members [2]	IC50 PTP4A3 ([2]; DiFMUP 12 μM, 25 minutes, 25° C., mean ± S.E.M.)
N=C1C(=O)NC(=O)c2cc(-c3ccccc3Cl)sc21 [Compound 9k, 2-(2-Chlorophenyl)-7-iminothieno[3,2-c]pyridine-4,6(5H,7H)-dione]	113 nM	even more pronounced preference for PTP4A3 compared with PTP4A2	–
CN1C(=O)C(=N)c2sc(-c3ccccc3)cc2C1=O [Compound 9p, 7-Imino-5-methyl-2-phenylthieno[3,2-c]pyridine-4,6(5H,7H)-dione]	264 nM	even more pronounced preference for PTP4A3 compared with PTP4A2	–
N=C1C(=O)NC(=O)c2cc(-c3ccc(OCCN4CCOCC4)cc3)sc21 [Compound 9o, 7-Imino-2-(4-(2-morpholinoethoxy)phenyl)thieno[3,2-c]pyridine-4,6(5H,7H)-dione]	–	little preference	–
O=c1[nH]c(=O)c2cc(-c3ccccc3)sc2[nH]1 [JMS-038, 6-phenylthieno[2,3-d]pyrimidine-2,4(1H,3H)-dione, reference compound]	–	–	failed to inhibit PTP4A3
